Like-named read-outs stand apart in the source and are kept apart here.

What is called ΔTm is the shift of the melting midpoint relative to a reference. In general, EC50 refers to the midpoint of the concentration-response curve.

Assay [1] addresses T1, HisAviTEV-hSTING (139-342) human REF-mutated protein (Homo sapiens, UniProt Q86WV6).
T1 construct: made in house; host or cells: E. coli Rosetta 2 (DE3), co-expressed with BirA (1-321)
In words: Protein thermal shift assay, STING C-terminal binding domain protein. The conditions noted are these: test compound final concentration 0.5 mM.

Assay [2] addresses T2, His-Avi-TEV-mSTING (138-341) mouse wild-type protein (Mus musculus, UniProt Q3TBT3).
T2 construct: made in house; host or cells: E. coli Rosetta 2 (DE3), co-expressed with BirA (1-321)
The description is as above. Conditions: test compound final concentration 0.5 mM. The procedure: Each of these expression strains was added to a TB medium containing 100 μg/mL ampicillin, 50 μg/mL streptomycin, and 30 μg/mL kanamycin, cultured at 37° C., then exposed to 100 μM IPTG for inducible expression, and further cultured at 16° C.
The culture solution was centrifuged, and the resulting bacterial cells were suspended in 50 mM HEPES pH 8.0, 500 mM NaCl, 20 mM imidazole, 1 mM DTT, 5% (w/v) glycerol, Complete EDTA free, and then subjected to freeze-thawing. After addition of Lysozyme and DNase I, proteins were extracted by ultrasonic disintegration, and centrifugation was performed and the resulting supernatant was collected. The supernatant obtained was purified by using an AKTA express chromatography system (GE Healthcare, IL, US) with a HisTrap FF column (GE Healthcare), and eluted with buffer (20 mM HEPES pH 7.5, 120 mM NaCl, 20% Glycerol, 0.8 mM DTT) through a Superdex 200 16/60 column (GE Healthcare). […] The protein concentrations were measured by using a NanoDrop2000 (Thermo Fisher Scientific, MA, US), and the proteins were cryopreserved at −80° C. until use.
The binding ability of each compound to the STING C-terminal binding domain proteins was evaluated by protein thermal shift assay, which uses the elevation of thermal denaturation temperature of protein as an index.
Specifically, 3 μL of a test compound (final concentration: 0.5 mM), 3 μL of SYPRO Orange Protein Gel Stain (Thermo Fisher Scientific) (final concentration: 20-fold), and 6 μL of a STING protein were mixed with use of assay buffer (20 mM Tris-HCl pH 7.5, 120 mM NaCl) in a 384-well real-time PCR plate, and mixed together with a plate shaker. With a real-time PCR system (Thermo Fisher Scientific), the temperature was increased from 25° C. to 95° C. at a rate of 0.03° C./sec, and the thermal denaturation temperature of the protein was measured by using fluorescence emitted from SYPRO Orange as an index. From the measurement acquired, Tm (the midpoint of the unfolding transition) (° C.) was determined as a temperature at which the increase rate of fluorescence intensity was maximized by using the analysis software Protein Thermal Shift software (Thermo Fisher Scientific). The Tm value for a well with no compound was subtracted from the Tm value for each test compound to calculate the Tm shift caused by the compound as ΔTm (° C.).

Assay [3] deals with T3, HisAviTEV-hSTING (139-342) human wild-type protein (Homo sapiens, UniProt Q86WV6, H232R).
T3 construct: made in house; host or cells: E. coli Rosetta 2 (DE3), co-expressed with BirA (1-321)
T3 sequence (Q86WV6 with tags, fused parts or gaps H232R): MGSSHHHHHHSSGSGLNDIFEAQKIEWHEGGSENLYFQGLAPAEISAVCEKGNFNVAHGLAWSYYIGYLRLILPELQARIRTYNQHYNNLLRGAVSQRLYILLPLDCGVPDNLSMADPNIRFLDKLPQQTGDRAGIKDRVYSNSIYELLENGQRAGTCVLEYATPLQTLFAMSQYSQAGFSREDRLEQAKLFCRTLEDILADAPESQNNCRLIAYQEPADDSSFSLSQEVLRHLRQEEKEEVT
The description is as above. The conditions noted are these: test compound final concentration 0.5 mM.

The target of assay [4] is T4, HisAviTEV-hSTING (139-342) human AQ-mutated protein (Homo sapiens, UniProt Q86WV6, G230A/H232R/R293Q).
T4 construct: made in house; host or cells: E. coli Rosetta 2 (DE3), co-expressed with BirA (1-321)
T4 sequence (Q86WV6 with tags, fused parts or gaps G230A/H232R/R293Q): as the sequence (Q86WV6 with tags, fused parts or gaps H232R) above, with G131A, R194Q counted along it
Described as above. The conditions noted are these: test compound final concentration 0.5 mM.

In assay [5] the target is Human STING (Homo sapiens, UniProt Q86WV6, G230A/H232R/R293Q/R71H). In words: Reporter gene assay, human STING agonist activity, THP1-Dual cells (HAQ-mutated), IRF pathway. Conditions: 24 hours, 100% = maximum count with ML-RR-CDA·2Na+.
Human STING, sequence (Q86WV6 whole entry R71H/G230A/H232R/R293Q): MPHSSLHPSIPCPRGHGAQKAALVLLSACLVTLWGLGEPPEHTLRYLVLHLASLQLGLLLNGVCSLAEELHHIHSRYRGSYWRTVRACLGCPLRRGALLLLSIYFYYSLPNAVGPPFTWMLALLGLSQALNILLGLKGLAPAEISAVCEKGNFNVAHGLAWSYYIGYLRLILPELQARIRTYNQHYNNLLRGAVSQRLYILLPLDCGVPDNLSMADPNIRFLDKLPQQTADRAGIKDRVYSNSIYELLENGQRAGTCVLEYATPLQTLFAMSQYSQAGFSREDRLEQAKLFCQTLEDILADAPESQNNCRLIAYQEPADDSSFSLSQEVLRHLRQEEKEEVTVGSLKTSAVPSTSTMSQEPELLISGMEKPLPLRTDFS
Procedure: Human STING agonist activity was evaluated by using THP1-Dual™ cells (HAQ-mutated) (InvivoGen, CA, US), with which the activation of the pathway of interferon regulatory factor-3 (IRF3), which is present in the downstream of the STING pathway, can be confirmed.
Assay was performed as follows. First, a test compound diluted with PBS was aliquoted into a transparent 96-well plate (Corning Incorporated, NY, US) at 20 μL/well. Subsequently, reporter cells suspended in assay buffer (an RPMI1640 medium or DMEM medium containing 10% bovine serum albumin) were added at 180 μL/well (1×10^5 cells/well) to initiate stimulation. After the cells were cultured in an environment at 37° C. and 5% CO2 for 24 hours, the resultant was centrifuged to collect the supernatant. To a white 384-well plate, 6 μL of the supernatant collected was added, and 15 μL of QUANTI-Luc (InvivoGen) solution was added thereto. After the resultant was well mixed together, emission was measured by using a plate reader (PerkinElmer, Inc., MA, US).
Where [6] appears, read: THP1-Dual cells IRF EC50, THP1-Dual cells (HAQ-mutated).

T1 sequence (Q86WV6 with tags, fused parts or gaps, change not shown): as the sequence (Q86WV6 with tags, fused parts or gaps H232R) above, with R133H counted along it
T2 sequence (Q3TBT3 with tags, fused parts or gaps limits assumed): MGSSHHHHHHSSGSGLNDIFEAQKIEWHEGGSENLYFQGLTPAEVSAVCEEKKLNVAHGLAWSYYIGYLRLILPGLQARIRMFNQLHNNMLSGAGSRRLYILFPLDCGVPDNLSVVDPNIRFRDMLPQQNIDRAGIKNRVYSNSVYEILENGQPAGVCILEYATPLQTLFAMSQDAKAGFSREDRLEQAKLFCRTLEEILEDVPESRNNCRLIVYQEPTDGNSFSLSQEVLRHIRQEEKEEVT

Take `O=C(CO)NCCn1cnc2c(ncn2[C@@H]2O[C@@H]3COP(=O)(S)O[C@H]4[C@@H](O)[C@H](n5cc6c7c(ncnc75)NCCC6)O[C@@H]4COP(=O)(S)O[C@@H]2[C@@H]3O)c1=O` (single isomer, unassigned) [7a]: the ΔTm at 500 µM in assay [1] was 3.9 °C; in assay [2], 11.5 °C; in assay [3] it was 8 °C; in assay [4], 9.7 °C. In assay [5] (setting [6]), the EC50 was 3500 nM.
On to `O=C(CO)NCCn1cnc2c(ncn2[C@@H]2O[C@@H]3COP(=O)(S)O[C@H]4[C@@H](O)[C@H](n5cc6c7c(ncnc75)NCCC6)O[C@@H]4COP(=O)(S)O[C@@H]2[C@@H]3O)c1=O` (single isomer, unassigned) [7b], for which, in assay [1], the “ΔTm Hu-REF” value was determined as 2.8 °C. Further, in assay [2], the “ΔTm Ms-WT” value was determined as 13.2 °C. For the same molecule, the “ΔTm Hu-WT” value in assay [3] is 7.2 °C. Besides, in assay [4], the “ΔTm Hu-AQ” value worked out at 9.5 °C. Further, in assay [5] (setting [6]), the midpoint of the response, the EC50, lay at 6100 nM.
On to `NCCNc1nc(N)c2ncn([C@@H]3O[C@@H]4COP(=O)(S)O[C@H]5[C@@H](O)[C@H](n6cc7c8c(ncnc86)NCCC7)O[C@@H]5COP(=O)(S)O[C@@H]3[C@@H]4O)c2n1` (single isomer, unassigned) [8a], for which the ΔTm at 500 µM in assay [1] stood at 2.8 °C; in assay [2], 11.5 °C; in assay [3] it was 7.6 °C; in assay [4] it was 10.8 °C. This molecule returned an EC50 in assay [5] (setting [6]) of 3100 nM.
For `O=P1(S)OC[C@H]2O[C@@H](n3cc4c5c(ncnc53)NCCC4)[C@H](O)[C@@H]2OP(=O)(S)OC[C@H]2O[C@@H](n3cnc4c(CO)ncnc43)[C@H](O1)[C@@H]2O` (single isomer, unassigned) [17a], the ΔTm at 500 µM is 2.7 °C in assay [1], 12.6 °C in assay [2], 7.3 °C in assay [3] and 10.7 °C in assay [4]. This molecule registered an EC50 in assay [5] (setting [6]) of 4400 nM.
For `O=P1(S)OC[C@H]2O[C@@H](n3cc4c5c(ncnc53)NCCC4)[C@H](O)[C@@H]2OP(=O)(S)OC[C@H]2O[C@@H](n3cnc4c(CO)ncnc43)[C@H](O1)[C@@H]2O` (single isomer, unassigned) [17b], the “ΔTm Hu-REF” value in assay [1] stood at 2.2 °C. For the same molecule, the “ΔTm Ms-WT” value in assay [2] amounted to 12.6 °C. The “ΔTm Hu-WT” value in assay [3] stood at 7.4 °C. Further, the “ΔTm Hu-AQ” value in assay [4] is 10.4 °C. In assay [5] (setting [6]), this molecule came in with an EC50 of 1000 nM.
As for `Nc1ncnc2c1ncn2[C@@H]1O[C@@H]2COP(=O)(S)O[C@H]3[C@@H](O)[C@H](n4cc5c6c(ncnc64)SCCC5)O[C@@H]3COP(=O)(S)O[C@@H]1[C@@H]2O` (single isomer, unassigned) [23a], the ΔTm at 500 µM in assay [1] was determined as 4.2 °C; in assay [2] it was 15.6 °C; in assay [3], 9.7 °C; in assay [4], 12.2 °C. Further, the EC50 in assay [5] (setting [6]) was determined as 2600 nM.
Taken in the same sequence, the figures for `O=c1[nH]cnc2c1ncn2[C@@H]1O[C@@H]2COP(=O)(S)O[C@H]3[C@@H](O)[C@H](n4cc5c6c(ncnc64)NCCC5)O[C@@H]3COP(=O)(S)O[C@@H]1[C@@H]2O` (single isomer, unassigned) [25a] were 6.2 °C, 16 °C, 11.4 °C, 15 °C and 1300 nM.
With `O=c1[nH]cnc2c1ncn2[C@@H]1O[C@@H]2COP(=O)(S)O[C@H]3[C@@H](O)[C@H](n4cc5c6c(ncnc64)NCCC5)O[C@@H]3COP(=O)(S)O[C@@H]1[C@@H]2O` (single isomer, unassigned) [25b], the “ΔTm Hu-REF” value in assay [1] is 4.6 °C. The “ΔTm Ms-WT” value in assay [2] amounted to 15.8 °C. For the same molecule, the “ΔTm Hu-WT” value in assay [3] was 10.6 °C. In addition, the “ΔTm Hu-AQ” value in assay [4] is 13.1 °C. Also, in assay [5] (setting [6]), it took 900 nM to reach a half-maximal effect (EC50).
Regarding `O=c1c2ncn([C@@H]3O[C@@H]4COP(=O)(S)O[C@H]5[C@@H](O)[C@H](n6cc7c8c(ncnc86)NCCC7)O[C@@H]5COP(=O)(S)O[C@@H]3[C@@H]4O)c2ncn1CCCO` (single isomer, unassigned) [26b], the ΔTm at 500 µM in assay [1] amounted to 3.9 °C; in assay [2] it was 14.1 °C; in assay [3], 9.1 °C; in assay [4], 11.5 °C. Also, the EC50 in assay [5] (setting [6]) was determined as 1200 nM.
For `O=c1c2ncn([C@@H]3O[C@@H]4COP(=O)(S)O[C@H]5[C@@H](F)[C@H](n6cc7c8c(ncnc86)NCCC7)O[C@@H]5COP(=O)(S)O[C@@H]3[C@@H]4O)c2ncn1CCO` (single isomer, unassigned) [34a] the same measures were 8.8 °C, 20.3 °C, 14.7 °C, 18.9 °C and 200 nM.
For `NCCn1cnc2c(ncn2[C@@H]2O[C@@H]3COP(=O)(S)O[C@H]4[C@@H](F)[C@H](n5cc6c7c(ncnc75)NCCC6)O[C@@H]4COP(=O)(S)O[C@@H]2[C@@H]3O)c1=O` (single isomer, unassigned) [35a] the same measures were 6.6 °C, 13.5 °C, 11 °C, 13.1 °C and 2000 nM.
With `NCCn1cnc2c(ncn2[C@@H]2O[C@@H]3COP(=O)(S)O[C@H]4[C@@H](F)[C@H](n5cc6c7c(ncnc75)NCCC6)O[C@@H]4COP(=O)(S)O[C@@H]2[C@@H]3O)c1=O` (single isomer, unassigned) [35b], the “ΔTm Hu-REF” value in assay [1] amounted to 5.8 °C. Also, the “ΔTm Ms-WT” value in assay [2] turned out to be 14.2 °C. Also, the “ΔTm Hu-WT” value in assay [3] worked out at 10.3 °C. In addition, the “ΔTm Hu-AQ” value in assay [4] stood at 12.6 °C. Besides, it took 3400 nM to reach a half-maximal effect in assay [5] (setting [6]) (EC50).
Take `O=C(CO)NCCn1cnc2c(ncn2[C@@H]2O[C@@H]3COP(=O)(S)O[C@H]4[C@@H](F)[C@H](n5cc6c7c(ncnc75)NCCC6)O[C@@H]4COP(=O)(S)O[C@@H]2[C@@H]3O)c1=O` (single isomer, unassigned) [36a]: the ΔTm at 500 µM worked out at 5.8 °C in assay [1], 15.4 °C in assay [2], 10.8 °C in assay [3] and 13.3 °C in assay [4]. In assay [5] (setting [6]), the EC50 stood at 2000 nM.
`O=C(CO)NCCn1cnc2c(ncn2[C@@H]2O[C@@H]3COP(=O)(S)O[C@H]4[C@@H](F)[C@H](n5cc6c7c(ncnc75)NCCC6)O[C@@H]4COP(=O)(S)O[C@@H]2[C@@H]3O)c1=O` (single isomer, unassigned) [36b]: in assay [1], the “ΔTm Hu-REF” value came to 5.5 °C. For the same molecule, in assay [2], the “ΔTm Ms-WT” value was 19.3 °C. In addition, the “ΔTm Hu-WT” value in assay [3] is 10.1 °C. Further, in assay [4], the “ΔTm Hu-AQ” value amounted to 11.8 °C. For the same molecule, the EC50 in assay [5] (read-out: THP1-Dual cells IRF EC50, THP1-Dual cells (HAQ-mutated)) came to 2000 nM.
For the molecule `NCCNc1nc(N)c2ncn([C@@H]3O[C@@H]4COP(=O)(S)O[C@H]5[C@@H](F)[C@H](n6cc7c8c(ncnc86)NCCC7)O[C@@H]5COP(=O)(S)O[C@@H]3[C@@H]4O)c2n1` (single isomer, unassigned) [37a], the shift in melting temperature (ΔTm) at 500 µM in assay [1] came out at 5.2 °C; in assay [2] it was 15.3 °C; in assay [3], 11.2 °C; in assay [4], 13.6 °C. The molecule further returned an EC50 in assay [5] (setting [6]) of 980 nM.
Take `NCCNc1nc(N)c2ncn([C@@H]3O[C@@H]4COP(=O)(S)O[C@H]5[C@@H](F)[C@H](n6cc7c8c(ncnc86)NCCC7)O[C@@H]5COP(=O)(S)O[C@@H]3[C@@H]4O)c2n1` (single isomer, unassigned) [37b]: the “ΔTm Hu-REF” value in assay [1] stood at 3.4 °C. In assay [2], the “ΔTm Ms-WT” value was 12.3 °C. In assay [3], the “ΔTm Hu-WT” value turned out to be 8.1 °C. Besides, the “ΔTm Hu-AQ” value in assay [4] amounted to 9.4 °C. Also, the concentration giving a half-maximal response (EC50) in assay [5] (setting [6]) is 4500 nM.

These data come from US12370263B2, “Cyclic dinucleotide derivative based antibody-drug conjugates” (DAIICHI SANKYO COMPANY, LIMITED, priority 2018, dated 2025).
